Experimental findings from US8367671B2, “Pyrazolo[3.4-B]pyrazine compounds as p38 modulators and methods of use as anti-inflamatory agents” (Amgen Inc., priority 2008, dated 2013) are described below.

Assay [1] deals with human p38α (Homo sapiens, UniProt Q16539). The experiment in a line: Purified and activated recombinant human p38α HTRF kinase assay. The class given is biochemical. As to conditions: 1 nM p38α, 50 μM ATP, 100 nM GST-ATF2-Avitag, 1 hour at RT; read-out: p38a IC50. Here is the method:
Purified and Activated Recombinant Human p38α Aassay
Kinase Reaction Buffer: Kinase reaction buffer for p38α HTRF assays consists of 50 mM Tris-pH 7.5, 5 mM MgCl2, 0.1 mg/mL BSA, 100 μM Na3VO4 and 0.5 mM DTT.
HTRF Detection Buffer: HTRF detection buffer contains 100 mM HEPES-pH 7.5, 100 mM NaCl, 0.1% BSA, 0.05% Tween-20, and 10 mM EDTA.
Serial Dilution of Compounds: Compounds were dissolved in 100% DMSO and serially diluted (3 fold, 10 point) in a polypropylene 96-well microtiter plate (drug plate). The final starting concentration of compounds in the p38a enzymatic assays was 1 μM. Columns 6 and 12 (HI controls and LO controls respectively) in the drug plate were reserved as controls and contained only DMSO. Kinase Reaction: The p38α kinase reactions were carried out in a polypropylene 96-well black round bottom assay plate in total volume of 30 μL kinase reaction buffer. Appropriate concentration of purified and activated enzyme (recombinant human) was mixed with indicated concentration of ATP and 100 nM GST-ATF2-Avitag, in the presence or absence (HI control) of Compound. See table below for actual concentrations. In the absence of substrate, the background was measured as LO control. The reaction was allowed to incubate for 1 hour at RT. Assay Reagent Concentrations: The final reagent concentrations were 1 nM p38α and 50 μM ATP. The Km for ATP of the enzyme was 103 μM, giving a ratio of ATP concentration to Km of 0.49. […] After 60 minutes incubation at room temperature, the assay plate was read in a Discovery Plate Reader. The wells were excited with coherent 320 nm light and the ratio of delayed ([…] post excitation) emissions at […] (native europium fluorescence) and 665 nm (europium fluorescence transferred to allophycocyanin—an index of substrate phosphorylation) was determined (Park et al, 1999). Data Analysis: The proportion of substrate phosphorylated in the kinase reaction in the presence of compound compared with that phosphorylated in the presence of DMSO vehicle alone (HI control) was calculated using the formula: % control (POC)=(compound−average LO)/(average HI−average LO)*100. Data (consisting of POC and inhibitor concentration in μM) was fitted to a 4-parameter equation (y=A+((B−A)/(1+((x/C)^D))), where A is the minimum y (POC) value, B is the maximum y (POC), C is the x (compound concentration) at the point of inflection and D is the slope factor, using a Levenburg-Marquardt non-linear regression algorithm.
The inhibition constant (Ki) of the inhibitor was estimated from the IC50 (compound concentration at the point of inflection C) using the Cheng-Prussof equation: Ki=IC50/(1+S/Km), where S is the ATP substrate concentration, and Km is the Michaelis constant for ATP as determined experimentally. All results were expressed as the mean±the standard error of the mean. Data acquisition and non-linear regression algorithms were performed using Activity Base v5.2 and XL-fit software v4.1 respectively. All data was archived using Activity Base v5.2 software.
For orientation: Time-resolved FRET reads energy transfer from a long-lived donor to a nearby acceptor.

The subject of assay [2] is TNF-α induced IL-8 in 50% human whole blood. Put plainly: Inhibition of TNF-α induced IL-8 in 50% human whole blood. The class given is cell-based. Conditions: 50% human whole blood activated with 1 nM TNF-α, secreted IL-8, 16-18 hours; read-out: WB TNF/IL8 IC50. The method, then: Inhibition of TNF-α Induced IL-8 in 50% Human Whole Blood
Test compounds were evaluated in vitro for the ability to inhibit the production of secreted IL-8 by whole blood activated with TNF-α. Fresh human whole blood was obtained from healthy, non-medicated volunteers in sodium heparin tubes.
Compound Dilution—Assay Procedure
Test compounds are serially diluted 1:3 in DMSO and then diluted 1:250 into R10 (RPMI 1640, 10% human serum AB, 1× pen/strep/glutamine) to the 4× working concentration to be used in the assay. 100 ul heparinized whole blood is plated into wells of 96 well flat bottom plates. 50 ul of either 4× compound or DMSO control (Final DMSO concentration is 0.1%) are added to the appropriate wells. Plates are incubated for 1 hour at 37 degrees Celsius. 50 ul of 4× TNF-α (4 nM TNF-α, for a final concentration of 1 nM) or control (media alone) is added to the appropriate wells (Total volume=200 ul). Plates are incubated overnight (16-18 hours). 100 ul of supernatant is collected and stored in 96-well round bottom polypropylene plates at −80 degrees Celsius or assayed immediately for IL-8.
Cytokines are measured on antibody (Ab) sandwich ECL based 96-well detection plates. 20 ul of supernatant are added to plate and plate is sealed and shaken at RT for 1 hour. 130 ul of detection Ab cocktail is added and plates are sealed and shaken for 1 hour in the dark at RT. Plates are read on MSD Sector HTS instrument. Data are analyzed and IC50 values generated using Activity Base and Xl-fit programs.

Sequence of human p38α (Q16539 whole entry): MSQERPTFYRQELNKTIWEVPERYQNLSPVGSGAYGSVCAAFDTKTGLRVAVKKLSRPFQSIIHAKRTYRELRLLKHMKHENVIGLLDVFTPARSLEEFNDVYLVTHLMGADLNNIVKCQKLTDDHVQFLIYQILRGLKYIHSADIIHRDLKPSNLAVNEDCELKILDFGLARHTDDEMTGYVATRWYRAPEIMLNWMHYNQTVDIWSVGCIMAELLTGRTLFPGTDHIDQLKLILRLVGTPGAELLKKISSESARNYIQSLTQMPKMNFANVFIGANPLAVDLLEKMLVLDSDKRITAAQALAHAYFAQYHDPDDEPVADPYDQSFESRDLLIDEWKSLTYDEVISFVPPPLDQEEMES

For the compound `CCn1c(=O)c(-c2cc(C(=O)NC3CC3)cc(F)c2C)nc2cnn(-c3c(F)cccc3F)c21` [Example 11, N-cyclopropyl-3-(1-(2,6-difluorophenyl)-7-ethyl-6-oxo-6,7-dihydro-1H-pyrazolo[3,4-b]pyrazin-5-yl)-5-fluoro-4-methylbenzamide], the IC50 in assay [1] turned out to be 2.3 nM; in assay [2], 3 nM.

Turning to `Cc1c(F)cc(C(=O)Nc2ccon2)cc1-c1nc2cnn(-c3ccc(F)cc3F)c2n(C)c1=O` [Example 8, 3-(1-(2,4-difluorophenyl)-7-methyl-6-oxo-6,7-dihydro-1H-pyrazolo[3,4-b]pyrazin-5-yl)-5-fluoro-N-3-isoxazolyl-4-methylbenzamide], the IC50 in assay [1] is 4.6 nM; in assay [2], 13 nM.

In the case of `Cc1c(F)cc(C(=O)Nc2ccon2)cc1-c1nc2cnn(-c3c(F)cccc3F)c2n(C)c1=O` [Example 6, 3-(1-(2,6-difluorophenyl)-7-methyl-6-oxo-6,7-dihydro-1H-pyrazolo[3,4-b]pyrazin-5-yl)-5-fluoro-N-3-isoxazolyl-4-methylbenzamide], the IC50 was determined as 1.2 nM in assay [1] and 3.2 nM in assay [2].

For the compound `Cc1ccc(C(=O)NC2CC2)cc1-c1nc2cnn(-c3c(F)cccc3F)c2n(C)c1=O` [Example 3, N-cyclopropyl-3-(1-(2,6-difluorophenyl)-7-methyl-6-oxo-6,7-dihydro-1H-pyrazolo[3,4-b]pyrazin-5-yl)-4-methylbenzamide], the IC50 in assay [1] turned out to be 3.3 nM; in assay [2] it was 7.3 nM.

Consider `Cc1ccc(C(=O)Nc2ccon2)cc1-c1nc2cnn(-c3c(F)cccc3F)c2n(C)c1=O` [Example 10, 3-(1-(2,6-difluorophenyl)-7-methyl-6-oxo-6,7-dihydro-1H-pyrazolo[3,4-b]pyrazin-5-yl)-N-3-isoxazolyl-4-methylbenzamide], for which the results for the IC50 in assay [1] and in assay [2] were 10 nM and 3.7 nM, respectively.

With `CCn1c(=O)c(-c2cc(C(=O)Nc3ccon3)cc(F)c2C)nc2cnn(-c3ccc(F)cc3F)c21` [Example 2, 3-(1-(2,4-Difluorophenyl)-7-ethyl-6-oxo-6,7-dihydro-1H-pyrazolo[4,3-b]pyrazin-5-yl)-5-fluoro-N-(isoxazol-3-yl)-4-methylbenzamide], the results for the IC50 in assay [1] and in assay [2] were 2.5 nM and 6.1 nM, respectively.

Consider `Cc1c(F)cc(C(=O)NC2CC2)cc1-c1nc2cnn(-c3c(F)cccc3F)c2n(C)c1=O` [Example 1, N-Cyclopropyl-3-(1-(2,6-difluorophenyl)-7-methyl-6-oxo-6,7-dihydro-1H-pyrazolo[4,3-b]pyrazin-5-yl)-5-fluoro-4-methylbenzamide], for which the IC50 stood at 1.8 nM in assay [1] and 10.7 nM in assay [2].

Turning to `CCn1c(=O)c(-c2cc(C(=O)NC3CC3)cc(F)c2C)nc2cnn(-c3ccc(F)cc3F)c21` [Example 9, N-cyclopropyl-3-(1-(2,4-difluorophenyl)-7-ethyl-6-oxo-6,7-dihydro-1H-pyrazolo[3,4-b]pyrazin-5-yl)-5-fluoro-4-methylbenzamide], the IC50 in assay [1] is 5 nM; in assay [2], 8.4 nM.

Take `CCn1c(=O)c(-c2cc(C(N)=O)cc(F)c2C)nc2cnn(-c3c(F)cccc3F)c21` [Example 12, 3-(1-(2,6-difluorophenyl)-7-ethyl-6-oxo-6,7-dihydro-1H-pyrazolo[3,4-b]pyrazin-5-yl)-5-fluoro-4-methylbenzamide]: the values for the IC50 in assay [1] and in assay [2] were 22 nM and 23 nM, respectively.

As for `Cc1ccc(C(N)=O)cc1-c1nc2cnn(-c3c(F)cccc3F)c2n(C)c1=O` [Example 4, 3-(1-(2,6-difluorophenyl)-7-methyl-6-oxo-6,7-dihydro-1H-pyrazolo[3,4-b]pyrazin-5-yl)-4-methylbenzamide], the IC50 in assay [1] was found to be 8.5 nM; in assay [2] it was 41 nM.

Take `CCn1c(=O)c(-c2cc(C(=O)Nc3ccon3)ccc2C)nc2cnn(-c3c(F)cccc3F)c21` [Example 13, 3-(1-(2,6-difluorophenyl)-7-ethyl-6-oxo-6,7-dihydro-1H-pyrazolo[3,4-b]pyrazin-5-yl)-N-3-isoxazolyl-4-methylbenzamide]: the IC50 in assay [1] was determined as 0.7 nM; in assay [2] it was 1.2 nM.

For the compound `Cc1c(F)cc(C(=O)NC2CC2)cc1-c1nc2cnn(-c3ccc(F)cc3F)c2n(C)c1=O` [Example 7, N-cyclopropyl-3-(1-(2,4-difluorophenyl)-7-methyl-6-oxo-6,7-dihydro-1H-pyrazolo[3,4-b]pyrazin-5-yl)-5-fluoro-4-methylbenzamide], the IC50 was found to be 34 nM in assay [1] and 25 nM in assay [2].

Turning to `CCn1c(=O)c(-c2cc(C(=O)NC3CC3)ccc2C)nc2cnn(-c3c(F)cccc3F)c21` [Example 5, N-cyclopropyl-3-(1-(2,6-difluorophenyl)-7-ethyl-6-oxo-6,7-dihydro-1H-pyrazolo[3,4-b]pyrazin-5-yl)-4-methylbenzamide], the IC50 in assay [1] stood at 1.4 nM; in assay [2] it was 5.8 nM.
